Source: ChEMBL document CHEMBL1201862, “PubChem BioAssay data set” (2004)
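All cell lines were grown in 96-well plates and treated with compound for 48 hours. GI50 is the concentration that inhibits growth by half.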 Calls of active or inactive are those of the source. Cut-off read from the data, not from the text of the source: active = GI50 up to about 1.1 µM and inactive = higher.

Experiments:
Assay in all cases: NCI anticancer screen, dose series, 48 h
786-0 = tested on: 786-0
A498 = tested on: A498
A549 = tested on: A549
ACHN = tested on: ACHN
CAKI-1 = tested on: CAKI-1
CCRF-CEM = tested on: CCRF-CEM
COLO 205 = tested on: COLO 205
DLD-1 = tested on: DLD-1
DMS-114 = tested on: DMS-114
EKVX = tested on: EKVX
HCC 2998 = tested on: HCC 2998
HCT-116 = tested on: HCT-116
HCT-15 = tested on: HCT-15
HOP-18 = tested on: HOP-18
HOP-62 = tested on: HOP-62
HOP-92 = tested on: HOP-92
HT-29 = tested on: HT-29
IGROV-1 = tested on: IGROV-1
K562 = tested on: K562
KM-20L2 = tested on: KM-20L2
KM12 = tested on: KM12
LOX IMVI = tested on: LOX IMVI
M14 = tested on: M14
MOLT-4 = tested on: MOLT-4
Malme-3M = tested on: Malme-3M
NCI-H226 = tested on: NCI-H226
NCI-H23 = tested on: NCI-H23
NCI-H460 = tested on: NCI-H460
NCI-H522 = tested on: NCI-H522
OVCAR-3 = tested on: OVCAR-3
OVCAR-4 = tested on: OVCAR-4
OVCAR-5 = tested on: OVCAR-5
OVCAR-8 = tested on: OVCAR-8
RPMI-8226 = tested on: RPMI-8226
RXF 393 = tested on: RXF 393
RXF 631 = tested on: RXF 631
SF-268 = tested on: SF-268
SF-295 = tested on: SF-295
SF-539 = tested on: SF-539
SK-MEL-28 = tested on: SK-MEL-28
SK-MEL-2 = tested on: SK-MEL-2
SK-MEL-5 = tested on: SK-MEL-5
SK-OV-3 = tested on: SK-OV-3
SN12C = tested on: SN12C
SNB-19 = tested on: SNB-19
SNB-75 = tested on: SNB-75
SW-620 = tested on: SW-620
TK-10 = tested on: TK-10
U-251 = tested on: U-251
UACC-257 = tested on: UACC-257
UACC-62 = tested on: UACC-62
UO-31 = tested on: UO-31
XF498 = tested on: XF498
HL-60 = tested on: HL-60
LXFL 529 = tested on: LXFL 529
SNB-78 = tested on: SNB-78
SR = tested on: SR

How did the GI50 (786-0) turn out when Cc1c(Cl)ccc2c1NC(=O)C2(O)CC(=O)c1ccc2ccccc2c1 (configuration not stated) was run?
Its GI50 is 29 µM (inactive).

And the GI50 (A498)?
The GI50 was > 100 µM (inactive).

What about the GI50 (A549) of the same molecule?
Its GI50 is 53.3 µM (inactive).

And the GI50 (ACHN)?
Its GI50 is 58.9 µM (inactive).

What about the GI50 (CAKI-1) of the same molecule?
Its GI50 is 42 µM (inactive).

What about the GI50 (CCRF-CEM) of the same molecule?
The GI50 was 29 µM (inactive).

And the GI50 (COLO 205)?
Its GI50 is 85.3 µM (inactive).

And the GI50 (DLD-1)?
Its GI50 is 79.8 µM (inactive).

And the GI50 (DMS-114)?
Its GI50 is 21.1 µM (inactive).

And the GI50 (EKVX)?
The GI50 was 84.7 µM (inactive).

What about the GI50 (HCC 2998) of the same molecule?
Its GI50 is > 100 µM (inactive).

And the GI50 (HCT-116)?
Its GI50 is 48.5 µM (inactive).

What about the GI50 (HCT-15) of the same molecule?
Its GI50 is 41.1 µM.

What about the GI50 (HOP-18) of the same molecule?
The GI50 was > 100 µM (inactive).

And the GI50 (HOP-62)?
The GI50 was > 100 µM (inactive).

What about the GI50 (HOP-92) of the same molecule?
Its GI50 is 44 µM (inactive).

What about the GI50 (HT-29) of the same molecule?
The GI50 was 39.6 µM (inactive).

And the GI50 (IGROV-1)?
Its GI50 is 37.5 µM (inactive).

And the GI50 (K562)?
The GI50 was 28.6 µM (inactive).

What about the GI50 (KM-20L2) of the same molecule?
The GI50 was 69 µM (inactive).

What about the GI50 (KM12) of the same molecule?
Its GI50 is 37.2 µM (inactive).

And the GI50 (LOX IMVI)?
Its GI50 is 44.7 µM (inactive).

And the GI50 (M14)?
Its GI50 is 86.1 µM (inactive).

And the GI50 (MOLT-4)?
The GI50 was 18.6 µM (inactive).

What about the GI50 (Malme-3M) of the same molecule?
The GI50 was > 100 µM (inactive).

What about the GI50 (NCI-H226) of the same molecule?
The GI50 was 24.4 µM (inactive).

And the GI50 (NCI-H23)?
Its GI50 is 28.2 µM (inactive).

And the GI50 (NCI-H460)?
Its GI50 is 67.1 µM (inactive).

And the GI50 (NCI-H522)?
Its GI50 is 24.7 µM (inactive).

And the GI50 (OVCAR-3)?
The GI50 was 33.4 µM (inactive).

And the GI50 (OVCAR-4)?
The GI50 was 46.9 µM (inactive).

What about the GI50 (OVCAR-5) of the same molecule?
Its GI50 is > 100 µM (inactive).

And the GI50 (OVCAR-8)?
The GI50 was 55.2 µM (inactive).

What about the GI50 (RPMI-8226) of the same molecule?
Its GI50 is 19.1 µM (inactive).

And the GI50 (RXF 393)?
Its GI50 is 16 µM (inactive).

And the GI50 (RXF 631)?
Its GI50 is 57.1 µM (inactive).

What about the GI50 (SF-268) of the same molecule?
The GI50 was 32.1 µM (inactive).

And the GI50 (SF-295)?
The GI50 was 88.3 µM (inactive).

What about the GI50 (SF-539) of the same molecule?
Its GI50 is 49.8 µM (inactive).

What about the GI50 (SK-MEL-28) of the same molecule?
Its GI50 is 48.2 µM (inactive).

And the GI50 (SK-MEL-2)?
Its GI50 is > 100 µM (inactive).

And the GI50 (SK-MEL-5)?
Its GI50 is > 10 µM (inactive).

What about the GI50 (SK-OV-3) of the same molecule?
Its GI50 is > 100 µM (inactive).

And the GI50 (SN12C)?
The GI50 was 76.7 µM (inactive).

And the GI50 (SNB-19)?
The GI50 was 45.8 µM (inactive).

And the GI50 (SNB-75)?
The GI50 was 14.2 µM (inactive).

And the GI50 (SW-620)?
The GI50 was 47.8 µM (inactive).

What about the GI50 (TK-10) of the same molecule?
The GI50 was > 100 µM (inactive).

What about the GI50 (U-251) of the same molecule?
The GI50 was 71.6 µM (inactive).

What about the GI50 (UACC-257) of the same molecule?
The GI50 was 55.8 µM (inactive).

What about the GI50 (UACC-62) of the same molecule?
Its GI50 is 21.5 µM (inactive).

And the GI50 (UO-31)?
Its GI50 is 22.4 µM (inactive).

What about the GI50 (XF498) of the same molecule?
Its GI50 is > 100 µM (inactive).

For Nc1ccn(CCNCCn2cnc3nc(N)[nH]c(=O)c32)c(=O)n1, which GI50 (786-0) is on record?
The GI50 was > 100 µM (inactive).

And the GI50 (A498)?
The GI50 was > 100 µM (inactive).

And the GI50 (A549)?
The GI50 was > 100 µM (inactive).

What about the GI50 (ACHN) of the same molecule?
Its GI50 is > 100 µM (inactive).

What about the GI50 (COLO 205) of the same molecule?
The GI50 was > 100 µM (inactive).

And the GI50 (DLD-1)?
Its GI50 is > 100 µM (inactive).

What about the GI50 (DMS-114) of the same molecule?
Its GI50 is > 100 µM (inactive).

What about the GI50 (EKVX) of the same molecule?
The GI50 was > 100 µM (inactive).

What about the GI50 (HCC 2998) of the same molecule?
Its GI50 is > 100 µM (inactive).

And the GI50 (HCT-116)?
Its GI50 is > 100 µM (inactive).

What about the GI50 (HCT-15) of the same molecule?
The GI50 was > 100 µM.

And the GI50 (HL-60)?
The GI50 was > 100 µM (inactive).

And the GI50 (HOP-18)?
The GI50 was > 100 µM (inactive).

And the GI50 (HOP-62)?
Its GI50 is > 100 µM (inactive).

And the GI50 (HOP-92)?
The GI50 was > 100 µM (inactive).

What about the GI50 (HT-29) of the same molecule?
Its GI50 is > 100 µM (inactive).

And the GI50 (IGROV-1)?
The GI50 was > 100 µM (inactive).

What about the GI50 (K562) of the same molecule?
The GI50 was > 100 µM (inactive).

What about the GI50 (KM-20L2) of the same molecule?
Its GI50 is > 100 µM (inactive).

And the GI50 (KM12)?
The GI50 was > 100 µM (inactive).

What about the GI50 (LOX IMVI) of the same molecule?
The GI50 was > 100 µM (inactive).

What about the GI50 (LXFL 529) of the same molecule?
Its GI50 is > 100 µM (inactive).

What about the GI50 (Malme-3M) of the same molecule?
Its GI50 is > 100 µM (inactive).

And the GI50 (NCI-H226)?
Its GI50 is > 100 µM (inactive).

What about the GI50 (NCI-H23) of the same molecule?
The GI50 was > 100 µM (inactive).

And the GI50 (NCI-H460)?
Its GI50 is > 100 µM (inactive).

What about the GI50 (NCI-H522) of the same molecule?
The GI50 was > 100 µM (inactive).

What about the GI50 (OVCAR-3) of the same molecule?
Its GI50 is > 100 µM (inactive).

And the GI50 (OVCAR-4)?
The GI50 was > 100 µM (inactive).

What about the GI50 (OVCAR-5) of the same molecule?
Its GI50 is > 100 µM (inactive).

And the GI50 (OVCAR-8)?
Its GI50 is > 100 µM (inactive).

And the GI50 (RPMI-8226)?
Its GI50 is > 100 µM (inactive).

What about the GI50 (RXF 393) of the same molecule?
The GI50 was > 100 µM (inactive).

And the GI50 (RXF 631)?
The GI50 was > 100 µM (inactive).

What about the GI50 (SF-268) of the same molecule?
The GI50 was > 100 µM (inactive).

And the GI50 (SF-295)?
The GI50 was > 100 µM (inactive).

What about the GI50 (SF-539) of the same molecule?
The GI50 was > 100 µM (inactive).

And the GI50 (SK-MEL-28)?
The GI50 was > 100 µM (inactive).

What about the GI50 (SK-MEL-2) of the same molecule?
The GI50 was > 100 µM (inactive).

What about the GI50 (SN12C) of the same molecule?
Its GI50 is > 100 µM (inactive).

What about the GI50 (SNB-19) of the same molecule?
Its GI50 is > 100 µM (inactive).

What about the GI50 (SNB-78) of the same molecule?
Its GI50 is > 100 µM (inactive).

And the GI50 (SR)?
Its GI50 is > 100 µM (inactive).

And the GI50 (SW-620)?
The GI50 was > 100 µM (inactive).

And the GI50 (TK-10)?
The GI50 was > 100 µM (inactive).

What about the GI50 (U-251) of the same molecule?
Its GI50 is > 100 µM (inactive).

What about the GI50 (UACC-257) of the same molecule?
The GI50 was > 100 µM (inactive).

And the GI50 (UO-31)?
The GI50 was > 100 µM (inactive).

What about the GI50 (XF498) of the same molecule?
The GI50 was > 100 µM (inactive).
